Data from US20240252508A1, “Novel glucose uptake inhibitors for use in the treatment of cancer” (NOVELYEAST BV, priority 2021, published 2024).
Entries after “also recorded” stand apart in the source; their conditions may differ.

Columns and labels:
[1] = test system: U266 multiple myeloma cell line; test: U266 proliferation (cell count); format: cell-based, human; settings: 25 μM, 4 days, RPMI with 1 mM glucose
Experimental: a. Cell count of the U266 multiple myeloma cell line after 4 days of growth on RPMI medium with 1 mM glucose. Cells were treated with either DMSO or 25 μM of WBC-A, -15C, -4C or -11C. Glucose consumption (b.) or lactate secretion (c.) rates are shown for U266 cells incubated in RPMI medium supplemented with 1 mM glucose for 8 h.

yeast Hxt7 = molecular target: T1, yeast Hxt7 (Saccharomyces cerevisiae, UniProt P39004); test: Glucose uptake by Hxt7 expressed in hxt^0 erg4Δ (EBY.VW4000) yeast; format: cell-based, S. cerevisiae
T1 construct: HA (C); expressed in transfected cells; host or cells: S. cerevisiae RE700A (hxt0 gal2Δ) in A5; EBY.VW4000 (hxt0 erg4Δ) in A7; plasmid 'pHXT7'
Description: (§1) To assess whether WBC-A could inhibit glucose transport activity of the GLUT carriers, we expressed human GLUT1^V69M and GLUT4^V85M in a hxt^0 gal2Δ (RE700A) and hxt^0 erg4Δ (EBY.VW4000) strain, respectively. These strains are both deficient in glucose uptake due to absence of all active glucose transporters. For functional GLUT expression in yeast, specific mutations had to be introduced in both sequences, whereas for GLUT4, an additional ERG4 gene deletion was required^64,65,66.
(§2) Zero-trans uptake of radioactively labeled [U-^14C]glucose, [U-^14C]fructose or [U-^14C]galactose by S. cerevisiae cells was determined in accordance with previous studies^44,66. Cells were grown on different carbon sources depending on the experiment. For measuring glucose uptake activity in the tps1Δ and tps1Δ hxtA strains (FIG. 1b,c), cells were grown on YP medium containing 3% glycerol (measurement of 10s). Typically, for compound characterization and kinetic studies in wild type and tps1Δ strains, cells were (pre)grown on Complete Synthetic medium supplemented with 2% galactose (measurement of 10s). […] The loaded filter was transferred to a scintillation vial containing 3 mL liquid scintillation cocktail (Ultima-Flo M, Perkin Elmer) and counted using the Hidex 300 SL. […]

[2] = test system: A549 lung adenocarcinoma cells; test: Steady-state glucose consumption and lactate production in A549 cells; format: cell-based, human; settings: 25 μM, 1 mM glucose, 8 h
Experimental: The influence of WBC compounds on the steady-state glucose consumption rate was studied in the A549 adenocarcinoma and KMS-12-PE multiple myeloma cell lines. As such, different parameters needed to be optimized depending on whether cells were adherent or in suspension. As such, A549 cells were incubated at 125,000 cells/well in a 24-well plate in 300 μL RPMI medium for 8 h. For the KMS-12-PE cell line, 100,000 cells/well were incubated in 100 μL RPMI medium in a 96-well plate for 8 h. Medium was collected, spun down and HPLC-analyzed for measuring glucose and lactate levels. Metabolite levels were corrected for cell number, which always varied little over the span of 8 h. For every condition, at least 4 technical repeats were included.

[3] = Warbicin toxicity and tolerability in mice; format: in vivo, NMRI-nu mice
Experimental: Warbicin in vivo toxicity and tolerability was examined by subjecting NMRI-nu mice to daily intraperitoneal injection of either WBC-A, WBC-15C, WBC-4C or WBC-11C. Compounds were dosed at either 5 mg/kg, 10 mg/kg or 20 mg/kg over a period of 20 days. Three mice were used per condition. To evaluate toxicity, change in body weight was registered daily. As a humane endpoint, mice that lost more than 20% of their original body weight were prematurely sacrificed. An optimal dissolve strategy was developed to administer WBC compounds by intraperitoneal injection. Due to their considerable hydrophobicity, compounds were dissolved in a sterilized 1×PBS, 5% DMSO and 5% Tween-80 solution. For WBC-A, -15C and -4C, this gives an initial clear solution that gradually changes over time into a homogenous suspension which can still be administered in a reproducible way. For WBC-11C it immediately results in a homogenous suspension.

human GLUT1^V69M = molecular target: T2, human GLUT1^V69M (Homo sapiens, UniProt P11166, V69M); test: Glucose uptake by GLUT1^V69M expressed in hxt^0 gal2Δ (RE700A) yeast; format: cell-based; settings: 2.5 mM glucose
T2 construct: HA (C); expressed in transfected cells; host or cells: S. cerevisiae RE700A (hxt0 gal2Δ), plasmid pFL38Kan-GLUT1^V69M (TEF1 promoter, low-copy)
T2 sequence (P11166 1-492 V69M): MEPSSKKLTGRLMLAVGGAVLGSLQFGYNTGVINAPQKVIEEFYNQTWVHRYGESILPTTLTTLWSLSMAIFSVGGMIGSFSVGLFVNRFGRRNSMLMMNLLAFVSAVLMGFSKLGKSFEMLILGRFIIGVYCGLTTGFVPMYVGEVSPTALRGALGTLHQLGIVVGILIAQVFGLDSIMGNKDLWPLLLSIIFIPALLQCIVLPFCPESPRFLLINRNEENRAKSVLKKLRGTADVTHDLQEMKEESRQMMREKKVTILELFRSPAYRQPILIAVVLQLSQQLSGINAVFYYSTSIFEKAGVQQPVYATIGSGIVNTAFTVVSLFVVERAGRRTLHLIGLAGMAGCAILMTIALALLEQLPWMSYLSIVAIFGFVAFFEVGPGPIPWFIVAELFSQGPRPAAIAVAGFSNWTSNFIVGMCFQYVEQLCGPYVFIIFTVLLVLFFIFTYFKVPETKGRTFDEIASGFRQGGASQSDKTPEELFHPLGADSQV
Description: as §1, §2

T1 sequence (P39004 whole entry): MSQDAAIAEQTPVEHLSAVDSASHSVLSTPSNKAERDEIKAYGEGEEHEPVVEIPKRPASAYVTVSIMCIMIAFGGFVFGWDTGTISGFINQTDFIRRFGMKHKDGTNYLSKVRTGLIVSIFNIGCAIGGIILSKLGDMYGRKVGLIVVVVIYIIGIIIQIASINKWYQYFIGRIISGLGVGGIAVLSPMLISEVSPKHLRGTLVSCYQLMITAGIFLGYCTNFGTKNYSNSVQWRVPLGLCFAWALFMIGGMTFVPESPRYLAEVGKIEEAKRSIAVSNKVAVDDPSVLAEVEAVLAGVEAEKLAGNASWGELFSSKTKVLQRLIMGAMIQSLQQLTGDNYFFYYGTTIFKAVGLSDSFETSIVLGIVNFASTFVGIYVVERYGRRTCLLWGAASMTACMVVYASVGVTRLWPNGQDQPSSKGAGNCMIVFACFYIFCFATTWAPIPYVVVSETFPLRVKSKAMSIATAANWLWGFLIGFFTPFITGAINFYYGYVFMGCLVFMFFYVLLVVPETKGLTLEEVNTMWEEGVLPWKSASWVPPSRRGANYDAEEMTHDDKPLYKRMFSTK

## Cc1nc(Sc2nnc3n2CCCCC3)c2c(-c3cccs3)csc2n1 [WBC-A]
[1]
  Proliferation of U266 cell line: inhibit proliferation
Yeast Hxt7
  IC50: 12.9 µM
[2]
  Glucose consumption and lactate production in A549 cells: did not cause inhibition
[3]; daily i.p. 5, 10, 20 mg/kg, 20 days
  Other abnormalities at autopsy: No other abnormalities
[3]; daily i.p. 5, 10 and 20 mg/kg, nude mice
  Loss in body weight over 20 days: no significant loss in body weight; also recorded: No significant difference
[3]; sera after 20 days, 5, 10, 20 mg/kg i.p.
  AST/ALT ratio vs vehicle: No significant difference
[3]; sera post mortem after 20 days, 5, 10, 20 mg/kg i.p.
  Blood glucose level vs vehicle: No significant difference
Human GLUT1^V69M; 25 μM, hxt^0 gal2Δ strain
  Inhibition of glucose uptake by GLUT1^V69M at 25 μM: inhibited
Human GLUT1^V69M; hxt^0 gal2Δ (RE700A)
  IC50: 24 µM
